# Where two headings read alike, the source gives them in different places. Square brackets hold non-standard residues; d marks the D form. Ends that are not written are not given here. Peptide text beside a SMILES is read from it. * marks the point of attachment. N(3,4-(MeO)2phenethyl)Gly = COc1ccc(CCNCC(=O)O)cc1OC; Farnesyl = CC(C)=CCC/C(C)=C/CC/C(C)=C/C*; Gly(NCH2CH2Ph) = O=C(O)CNCCc1ccccc1; Gly(N-cHex) = O=C(O)CNC1CCCCC1; NMeV = CN[C@H](C(=O)O)C(C)C; N(iPr)Gly = CC(C)NCC(=O)O; Nphe = O=C(O)CNCc1ccccc1; Nleu = CC(C)CNCC(=O)O
# Experiments:
# [1] = target: T1, Farnesyl protein transferase (FT) (Bos taurus, UniProt P29702+P49355); assay: Farnesyl protein transferase (FT) inhibition assay; assay type: biochemical, bovine; settings: for IC50: partially purified FT, Gst-HRas substrate
# T1 construct: Partial purification of FT from bovine brain; from tissue; host or cells: bovine brain
# Experimental: FT activity was quantified by measuring the incorporation of [^3 H]farnesyl from all-trans-[^3 H]farnesylpyrophosphate into purified Gst-HRas.
# Partial purification of FT from bovine brain was performed essentially as described by Reiss at al. (Reiss et al, Cell, 1990, 62: 81), except that a fractogel DEAE column (150×16 mm, Merck) was used for the ion exchange chromatagraphy step. GST-HRas expression vector was constructed by cloning the Hras gene into a pGEX-1 vector, and expressed in E. coli strain TG1. The protein was purified using glutathione agarose (Sigma USA). FT inhibition assays were run in 96-well dishes in a reaction volume of […]. The final reaction mixture contained 5 mM GST-HRas, 0.9 mM [^3 H]farnesylpyrophosphate 20,000 dmp/pmol (NEN-Dupont), 1 mg of partially purified FT, 5 mM MgCl2, 3 mM ZnCl2, 40 mM TRIS.HCl pH 7.5, 60 mM NaCl, 1 mM DTT, 0.2 mM Glutathione, 0.03% Octyl-b-D-glucopyranoside, and serial dilutions of inhibitor.
# Following incubation at 37° C. for 30 minutes the reactions were stopped by adding 100 ml of 4% sodium dodecyl sulfate (SDS) followed by 100 ml of 30% trichloroacetic acid (TCA). Plates were incubated for 100 minutes on ice, and the precipitates were filtered using a Millipore milliblot™-system (Millipore Corp., Bedford Mass.) with GF/C membranes. The wells were washed twice with 200 ml of 2% SDS/6% TCA and 7 times with […] of 6% TCA. The filters were punched into 4 ml vials and dried at 70° C. for 10 minutes. 3 ml of scintillation fluid was added and radioactivity was monitored by scintillation counting. IC50 values were resolved from dose-response curves of percent control versus log drug concentration, using the Regression program (Blackwell, UK). Each compound was tested 2-4 times.
# [2] = target: T2, Geranylgeranyl transferase-I (GGT) (Bos taurus, UniProt P29702+Q5EAD5); assay: Geranylgeranyl transferase-I (GGT) inhibition assay; assay type: biochemical, bovine; settings: partially purified GGT, Gst-HRas-CVLL substrate
# T2 construct: GGT was partially purified from bovine brain; from tissue; host or cells: bovine brain cytosol
# Excerpt: The second assay estimated the selectivity of the inhibitor towards FT over a related enzyme, geranylgeranyl-protein-transferase-I (GGT), which transfers a C20 -isoprenoid to a thiol group of cysteine of a C-terminal CAAL (SEQ ID NO:17) peptide sequence derived from geranylgeranylpyrophosphate. Geranylgeranylation of normal cellular proteins is 5-10 times more common than farnesylation (Gibbs et al., Cell, 1994, 77: 175; Gibbs, Cell, 1991, 65: 1; Maltese,. FASEB J., 1990, 4: 3319).
# A selective FT-inhibitor is considered to cause fewer cytotoxic effects than a nonselective inhibitor of both FT and GGT. GGT activity, for the partially purified GGT enzyme (Moores et al., J. Biol. Chem., 1991, 266: 14603), was quantified by measuring the incorporation of [^3 H]geranylgeranyl from all trans [^3 H]geranylgeranylpyrophosphate, into purified Gst-HRas-CVLL.
# GGT was partially purified from bovine brain. Cytosol was prepared and GGT was isolated using a fractogel DEAE column (150×16 mm, Merck) with NaCl gradient, as for FT purification (see Example 15 above). Fractions containing the GGT activity were pooled and stored at -70° C. Hras gene was point mutated using an oligonucleotide directed in vitro mutagenesis system (Amersham version 2.1). The mutated Hras gene was cloned into the GST--frame of a pGEX-1 expression vector, expressed in E. coli strain TG1, and a fusion protein Gst-HRas-CVLL (SEQ ID NO:22) was purified on glutathione agarose.
# [3] = target: T3, FT (Bos taurus, UniProt P29702+P49355); assay: Inhibitor farnesylation assay (alternative substrate); assay type: biochemical, bovine; settings: incubated with FT and [3H]farnesylpyrophosphate in the absence of Ras
# T3 construct: Partial purification of FT from bovine brain; from tissue; host or cells: bovine brain
# Experimental: The third assay checked whether the inhibitor itself undergoes farnesylation. For this purpose, the inhibitor was incubated with the FT enzyme and [^3 H]farnesylpyrophosphate in the absence of Ras.
# For examination whether the inhibitors undergo farnesylation a previously described procedure (Goldstein et al., J. Biol. Chem., 1991, 266: 15575) was used. Each reaction mixture contained the following components in a final volume of […]: 40 mM TRIS.HCl pH 7.5, 67 mM NaCl, 5 mM MgCl2, 7 mM ZnCl2, 1 mM DTT, 0.07% (v/v) octyl-b-D-glucopyranoside, 20 pmol of [^3 H]farnesylpyrophosphate 45,000 dpm/pmol, 4 mM peptide or peptoid, and 1 mg of partially purified FT. After incubation at 37° C. for 30 minutes, the entire reaction mixture was spotted onto an aluminum backed Silica Gel thin layer sheet (20×20 cm, Merck), and placed in a tank containing n-propyl-alcohol/ammonium hydroxide/water (6:3:1, v/v/v). The chromatogram was run for 4 hours, sprayed with EN^3 HANCE (Dupont) and exposed to RX film (FUJI) for 4 days at -70° C.
# [4] = tested on: Ras processing in v-Ha-ras transformed NIH3T3 cells; assay: Protein processing assay in intact cells: Ras; assay type: cell-based; settings: western blot
# Experimental: Its selectivity towards FT as compared to GGT in whole cells, was determined by its relative inhibitory effects on Ras farnesylation and on Rap1A/Krev geranylgeranylation (Casey, J. Lipid Res. 1992, 33, 1731-1740; Cox et al., Curr. Opin. Cell Biol. 1992, 4, 1008-1016; Garcia et al., J. Biol. Chem. 1993, 268, 18415-18418; and Vogt et al., J. Biol. Chem. 1995, 270, 660-664), respectively. v-Ha-ras transformed NIH3T3 cells were incubated with lovastatin or increasing concentrations of the inhibitor. Cells were lysed and the processed and unprocessed forms of Ras or Rap1A were separated by SDS-PAGE and immunoblotted with anti-Ras or anti-Rap1A antibodies, respectively. Lovastatin is a compound which blocks the processing of isoprenylated proteins in cells by inhibiting an early step of the isoprenoid biosynthetic pathway, and therefore serves as a positive control for the inhibition of both geraylgeranylation and farnesylation (Kohl et al., Science 1993, 260, 1934-1937; Garcia et al., J. Biol. Chem. 1993, 268, 18415-18418; Vogt et al., J. Biol. Chem. 1995, 270, 660-664).
# After 48 hr of incubation, cell extracts were separated on SDS-PAGE and immunoblotted with anti-Ras antibody.
# Cells were lysed (Garcia et al., J. Biol. Chem. 1993, 268, 18415-18418) in 1% Nonidet P-40, 5 mM TRIS.HCl pH 8.0, 5 mM EDTA, 1 mM phenylmethylsulfonyl fluoride, 10 mg/ml aprotonin, 10 mg/ml soybean trypsin inhibitor and 313 mg/ml benzamidine. The lysate was separated by centriflgation and the supernatant used as cell extract. Total protein was separated by SDS-PAGE (40 mg/lane) in 15% acrylamide (0.4% bis-acrylamide) gels, transferred onto nitrocellulose (Schleicher & Schuell, optitran BA-S 85) and probed with anti-Ras antibody Y13-259, or monoclonal anti-Rap1A/K-rev antibody (transduction laboratories). The western blots were visualized using an enhanced chemiluminescence (ECL) detection system.
# [5] = tested on: Rap1A/K-rev processing in v-Ha-ras transformed NIH3T3 cells; assay: Protein processing assay in intact cells: Rap1A/K-rev; assay type: cell-based
# Experimental: Its selectivity towards FT as compared to GGT in whole cells, was determined by its relative inhibitory effects on Ras farnesylation and on Rap1A/Krev geranylgeranylation (Casey, J. Lipid Res. 1992, 33, 1731-1740; Cox et al., Curr. Opin. Cell Biol. 1992, 4, 1008-1016; Garcia et al., J. Biol. Chem. 1993, 268, 18415-18418; and Vogt et al., J. Biol. Chem. 1995, 270, 660-664), respectively. v-Ha-ras transformed NIH3T3 cells were incubated with lovastatin or increasing concentrations of the inhibitor. Cells were lysed and the processed and unprocessed forms of Ras or Rap1A were separated by SDS-PAGE and immunoblotted with anti-Ras or anti-Rap1A antibodies, respectively.
# To test the selectivity of compound 12 towards FT in whole cells, the post-translational processing of an endogenous geranylgeranylated protein, Rap1A/K-rev, was analyzed.
# v-Ha-ras transformed NIH3T3 fibroblasts were treated with 15 mM lovastatin or the indicated concentrations of compound 12 or vehicle (0.25 mM DTT, 0.25% DMSO), for 48 hr. Cells were lysed (Garcia et al., J. Biol. Chem. 1993, 268, 18415-18418) in 1% Nonidet P-40, 5 mM TRIS.HCl pH 8.0, 5 mM EDTA, 1 mM phenylmethylsulfonyl fluoride, 10 mg/ml aprotonin, 10 mg/ml soybean trypsin inhibitor and 313 mg/ml benzamidine. The lysate was separated by centriflgation and the supernatant used as cell extract. […]
# [6] = target: farnesyl protein transferase (Homo sapiens, UniProt P49354+P49356); settings: cited from earlier work; for farnesyl protein transferase inhibitory potency in vitro: literature
# [7] = tested on: Ras processing in cells transformed with v-ras; settings: cited from earlier work
Molecule,IC50 [1],IC50 [2],alternative substrate (inhibitor itself farnesylated) [3],further results
"COc1ccc(CCN(CC(=O)N[C@@H](CCSC)C(=O)O)C(=O)CN(C(=O)[C@@H](N)CS)C(C)C)cc1OC [Semipeptoid 6, cysteinyl-(Nα-isopropyl)glycyl-(Nα-3,4-dimetoxyphenethyl)glycyl-methionine] (H-C[N(iPr)Gly][N(3,4-(MeO)2phenethyl)Gly]M-OH)",4 µM,80 µM,no,–
"CC[C@H](C)C(=O)O[C@H]1C[C@@H](C)C=C2C=C[C@H](C)[C@H](CC[C@@H]3C[C@@H](O)CC(=O)O3)[C@H]21 [lovastatin, reference compound]",–,–,–,"effect on Ras processing ([4]; 48 hr, compared with vehicle): increased amount of unprocessed Ras versus processed Ras; effect on Rap1A/K-rev processing ([5]; 48 hr, western blot): did inhibit Rap1A/K-rev processing"
methyl ester Derivative of cysteinyl-(Nα-methyl)valyl-(Nα-cyclohexyl)glycyl-methionine [Semipeptoid 12],–,–,–,"concentration range of dose dependent shift of Ras towards its unprocessed form ([4]; 48 hr incubation): 1 to 160 mM; IC50 ([4]; 48 hr incubation, read-out: in situ IC50 (shift of Ras towards its unprocessed form)): 10 µM; effect on Rap1A/K-rev processing [5]: not affected"
"CC[C@H](C)[C@@H](CO[C@@H](Cc1ccccc1)C(=O)N[C@@H](CCS(C)(=O)=O)C(=O)O)NC[C@@H](N)CS [L-739,750]",–,–,–,farnesyl protein transferase inhibitory potency in vitro [6]: potent inhibitor
CVLS: CAAX tetrapeptide (SEQ ID NO:18); the result concerns its farnesylated form (C(Farnesyl)VLS),–,–,–,fold less potent as inhibitor: farnesylated peptide versus its corresponding tetrapeptide ([6]; farnesylated form of the peptide): about 13 fold
"CSCC[C@H](NC(=O)CN(C(=O)[C@H](C(C)C)N(C)C(=O)[C@@H](N)CS)C1CCCCC1)C(=O)O [Semipeptoid 11, cysteinyl-(Nα-methyl)valyl-(Nα-cyclohexyl)glycyl-methionine] (H-C[NMeV][Gly(N-cHex)]M-OH)",0.0012 µM,0.91 µM,–,"increase of selectivity versus compound 4 ([1]; FT over GGT, versus compound 4): 11 fold; IC50 (GGT)/IC50 (FT) ([1]; selectivity ratio): 758; improvement of potency versus compound 4 (FT) ([1]; versus compound 4): 58 fold; alternative substrate (inhibitor itself farnesylated) ([3]; listed as 11): no; alternative substrate (inhibitor itself farnesylated) ([3]; listed as compound 11): non-farnesylated"
"CSCC[C@H](NC(=O)[C@H](Cc1ccccc1)NC(=O)CN(CC(C)C)C(=O)[C@@H](N)CS)C(=O)O [Semipeptoid 10, cysteinyl-(Nα-isobutyl)glycyl-phenylalanyl-methionine] (H-C[Nleu]FM-OH)",75 µM,240 µM,no,–
"CSCC[C@H](NC(=O)CN(CCc1ccccc1)C(=O)[C@@H](NC(=O)[C@@H](N)CS)C(C)C)C(=O)O [Semipeptoid 2, cysteinyl-valyl-(Nα-phenethyl)glycyl-methionine] (H-CV[Gly(NCH2CH2Ph)]M-OH)",0.32 µM,30 µM,no,reduction of relative potency versus compound 1 (FT) ([1]; versus compound 1): 3.2 fold
"CSCC[C@H](NC(=O)[C@H](Cc1ccccc1)NC(=O)CN(CCN(C)C)C(=O)[C@@H](N)CS)C(=O)O [Semipeptoid 9, cysteinyl-(Nα(N,N-dimethylaminoethyl))glycyl-phenylalanyl-methionine]",4 µM,> 400 µM,no,–
"CSCC[C@H](NC(=O)[C@H](Cc1ccccc1)NC(=O)CN(C(=O)[C@@H](N)CS)C(C)C)C(=O)O [Semipeptoid 8, cysteinyl-(Nα-isopropyl)glycyl-phenylalanyl-methionine] (H-C[N(iPr)Gly]FM-OH)",50 µM,155 µM,no,–
"COc1ccc(CCN(CC(=O)N[C@@H](CCSC)C(=O)O)C(=O)[C@@H](NC(=O)[C@@H](N)CS)C(C)C)cc1OC [Semipeptoid 3, cysteinyl-valyl-(Nα-3,4-dimetoxyphenethyl)glycyl-methionine] (H-CV[N(3,4-(MeO)2phenethyl)Gly]M-OH)",0.12 µM,23 µM,no,times more potent than compound 6 (FT) ([1]; versus compound 6): 33 times
"CC[C@H](C)[C@H](NC[C@@H](NC[C@@H](N)CS)[C@@H](C)CC)C(=O)N[C@@H](CCO)C(=O)O [L-731,735, N-{2(S)-[2(R)-amino-3-mercaptopropylamino]-3(S)-methylpentyl}isoleucyl-homoserine]",–,–,–,farnesyl protein transferase inhibitory potency in vitro [6]: potent and selective inhibitor; effect on Ras processing in cells [7]: no effect on Ras processing
"CSCC[C@H](NC(=O)CN(Cc1ccccc1)C(=O)CN(C(=O)[C@@H](N)CS)C(C)C)C(=O)O [Semipeptoid 5, cysteinyl-(Nα-isopropyl)glycyl-(Nα-benzyl)glycyl-methionine] (H-C[N(iPr)Gly][Nphe]M-OH)",13 µM,190 µM,no,–
"CSCC[C@H](NC(=O)CN(Cc1ccccc1)C(=O)[C@@H](NC(=O)[C@@H](N)CS)C(C)C)C(=O)O [Semipeptoid 1, cysteinyl-valyl-(Nα-benzyl)glycyl-methionine] (H-CV[Nphe]M-OH)",0.1 µM,40 µM,no,fold more potent than compound 5 (FT) ([1]; versus compound 5): 130 fold; fold more potent than compound 8 (FT) ([1]; versus compound 8): 500 fold
"CSCC[C@H](NC(=O)CN(Cc1ccccc1)C(=O)CN(CCN(C)C)C(=O)[C@@H](N)CS)C(=O)O [Semipeptoid 7, cysteinyl-(Nα(N,N-dimethylaminoethyl))glycyl-(Nα-benzyl)glycyl-methionine]",3 µM,40 µM,no,–
"CSCC[C@H](NC(=O)CN(C(=O)[C@@H](NC(=O)[C@@H](N)CS)C(C)C)C1CCCCC1)C(=O)O [Semipeptoid 4, cysteinyl-valyl-(Nα-cyclohexyl)glycyl-methionine] (H-CV[Gly(N-cHex)]M-OH)",0.07 µM,5 µM,no,–
